Here are results for two compounds from article PMC2990587, “Central nervous system penetration and enhancement of temozolomide activity in childhood medulloblastoma models by poly(ADP-ribose) polymerase inhibitor AG-014699” (British Journal of Cancer, 2010).

Details of series [1]: method as in Thomas et al, 2007. The note with it: ref Thomas et al, 2007; cited from earlier work.
Series [2] in a line: AG-014447 distribution in plasma, brain and D283Med xenograft of tumour-bearing mice (LC/MS/MS). The series is classed as in vivo, mouse. Particulars: for AUC in tumour: D283Med xenograft. The method, then:
One or four daily doses of PARP inhibitor AG-014699 (1 mg kg^−1 intraperitoneally (i.p.)) were given to CD-1 nude mice bearing established D283Med xenografts. At 0.5, 2, 6 and 24 h after the initial or fourth daily dose of AG-014699, three animals per time point were bled by cardiac puncture under general anaesthesia, and then killed. Plasma was separated from the blood samples using standard methods and stored at −80°C. The brains and tumours were removed, snap frozen in liquid nitrogen and stored at −80°C before analysis. Blood, tumour and brain tissue were removed from three untreated control animals and processed in the same way.
AG-014699 is the phosphate salt of AG-014447 and rapidly liberates the parent drug following injection. The concentration of AG-014447 was determined in plasma and tissue homogenates (1 : 4 (w v^−1) in PBS) of brain and tumour after protein precipitation with acetonitrile by liquid chromatography/mass spectrometry/mass spectrometry using a turbo ion spray interface and multiple reaction monitoring in the positive ion mode (API 4000; Applied Biosystems, Warrington, Cheshire, UK) and a deuterated internal standard as described previously ([Plummer et al, 2008]). The lower limit of quantitation was 1 ng ml^−1. Plasma pharmacokinetics of AG-014447 were analysed using a non-compartmental approach in WinNonlin version 5.2.

The nature of series [3]: Toxicity (body weight loss) in tumour-bearing mice. The series is classed as in vivo, mouse. Particulars: daily x5; TMZ 68 mg kg−1 p.o., AG-014699 1 mg kg−1 i.p. The method, then:
CD-1 nude mice bearing palpable, established subcutaneous D425Med, D283Med and D384Med xenografts were treated with normal saline (control animals), temozolomide (68 mg kg^−1 per os (p.o.)) or AG-014699 (1 mg kg^−1 i.p.) alone or in combination, daily for 5 days (five mice per group). For drug combinations, AG-014699 was administered immediately after administering temozolomide. Tumour volumes, determined from two-dimensional calliper measurements and the equation a^2 × b/2 (where a is the […] of the tumour), were monitored for the experimental period (up to 100 days), and are presented for each group of mice as median relative tumour volume (RTV) values. Relative tumour volume 1 is the tumour volume on the initial day of treatment (day 0), and RTV4 is the tumour volume four times that on the initial day of treatment. Tumour growth delay (TGD) is defined as the time to RTV4 in drug-treated mice compared with the time to RTV4 in control (vehicle alone) mice. Median tumour volume is shown, rather than the mean, as this is generally accepted as the most statistically reliable representation of the average growth rate of tumours in a small group of mice, if a normal distribution of tumour volumes cannot be assumed. Tumour growth delay was calculated as: median time to RTV4 in treated group−median time to RTV4 in control group. Percentage enhancement was calculated as 100 × (TGD TMZ+AG-014699/TGD TMZ alone)−100 ([Calabrese et al, 2004]).

For a further series, the system named is D425Med xenografts. As to the kind of experiment: Tumour growth inhibition in vivo, D425Med xenografts. Also on record: species or system mouse. The source says:
(§1) All of the in vivo experiments were reviewed and approved by the relevant institutional animal welfare committees, and performed according to national law. Female athymic nude mice (CD1 nu/nu; Charles River, Margate, UK) used for anti-tumour studies were maintained and handled in isolators under specific pathogen-free conditions. […], […] and […] (1 × 10^7 exponentially growing cells per mouse, harvested and implanted in growth media) xenografts were established by sub-cutaneous implantation into CD-1 nude mice. […] Treatment was initiated when sufficient number of mice had established tumours to allow randomisation into treatment groups: day 17 for […], day 26 for […] and day 32 for […]. […] For drug combinations, AG-014699 was administered immediately after administering temozolomide. […] Tumour growth delay (TGD) is defined as the time to RTV4 in drug-treated mice compared with the time to RTV4 in control (vehicle alone) mice. Median tumour volume is shown, rather than the mean, as this is generally accepted as the most statistically reliable representation of the average growth rate of tumours in a small group of mice, if a normal distribution of tumour volumes cannot be assumed. Tumour growth delay was calculated as: median time to RTV4 in treated group-median time to RTV4 in control group.

Another series deals with D384Med cells. As to the kind of experiment: XTT growth inhibition, D384Med. The series is classed as cell-based, human. Particulars: Homo sapiens, D384 Med, 72 h; D384Med; temozolomide alone; XTT, 3 days. The method, then:
(§2) Cell growth inhibition was estimated in exponentially growing D425Med, D283Med and D384Med cells in 96-well plates. Seeding densities of 1 × 10^3, 3 × 10^3 and 3 × 10^3 cells, respectively, ensured exponential growth for the duration of the experiment. At 24 h (D384Med) or 48 h (D283Med and D425Med) after seeding, cells were exposed to varying concentrations of temozolomide, as described in the Results, in the presence or absence of 0.4 μM AG-014699, a concentration previously shown to enhance temozolomide cytotoxicity in adult tumour cell lines ([Thomas et al, 2007]). After 3 days (D425Med and D384Med) or 5 days (D283Med) of culture (equivalent to approximately three cell divisions), the cell viability was quantified using an XTT cell proliferation kit assay (Roche, Mannheim, Germany), according to the manufacturer's instructions. Cell growth was expressed as a percentage in relation to DMSO or 0.4 μM AG-014699-alone controls. The concentration of temozolomide, alone or in combination with AG-014699, that inhibited growth by 50% (GI50) was calculated from computer-generated curves (GraphPad Software, San Diego, CA, USA). The potentiation factor50 (PF50) is defined as the ratio of […]. All data were from at least three independent experiments.
Background: Tetrazolium assays rely on reduction of a dye to a coloured formazan, in cell work by metabolically active cells.

Another series concerns D283Med xenografts. As to the kind of experiment: Tumour growth inhibition in vivo, D283Med xenografts. Also on record: species or system mouse. Particulars: for Complete regressions: mice with regression/group.
Source text: as §1

For another series, the system named is D384Med xenografts. As to the kind of experiment: Tumour growth inhibition in vivo, D384Med xenografts. Also on record: species or system mouse. The note with it: for Complete regressions: mice with regression/group, transient.
Source text: as §1

The subject of another series is D283Med cells. Briefly: XTT growth inhibition, D283Med. The series is classed as cell-based, human. Here is the method:
as §2

The test system of the next series is D425Med cells. Briefly: XTT growth inhibition, D425Med. The format is cell-based, human. Particulars: for GI50: D425Med, temozolomide alone, XTT, 3 days. Here is the method: as §2

“Also recorded” adds a separate entry of the source. Bounds are passed on as bounds.

A word on the pKa: it is the negative logarithm of the acid dissociation constant. As to `CNCc1ccc(-c2[nH]c3cc(F)cc4c3c2CCNC4=O)cc1` [AG-014447], in series [1], the “c log D” value is reported as 0.7 and the pKa was 9.6. Moreover, in series [2] (6 h after fourth daily dose 1 mg kg−1 i.p.), the “Levels in the brain relative to plasma” value is “only marginally greater than plasma levels”. Also, the “Brain level relative to plasma level” value in series [2] (24 h after single dose 1 mg kg−1 i.p.) is “up to 10 fold”. Also, in [2] (day 1, 1 mg kg−1 i.p.), the AUC in tumour is 582.0 µmol·min/L, the AUC in brain amounted to 37.0 µmol·min/L, the AUC in plasma amounted to 26.4 µmol·min/L and the Plasma half-life was 4.98 h. In series [2] (day 4, 1 mg kg−1 i.p. daily), this compound displayed an AUC in tumour of 509.6 µmol·min/L, an AUC in brain of 14.7 µmol·min/L, an AUC in plasma of 21.9 µmol·min/L and a Plasma half-life of 4.23 h. For the same compound, the “Plasma level of AG-014447 at 24 h” value in series [2] (first dose AG-014699 1 mg kg−1 i.p., LLOQ 1 ng ml−1) is “below the level of quantitation”.
Broadly, the GI50 is the concentration that inhibits growth by half. Regarding `Cn1nnc2c(C(N)=O)ncn2c1=O` [temozolomide], the Body weight loss in [3] is 5±4%. Also, the “Median nadir body weight (% starting weight)” value came out at 96 % starting weight in the series on D425Med xenografts (D425Med-bearing mice, daily x5, TMZ 68 mg kg−1 p.o., AG-014699 1 mg kg−1 i.p.); 94 % starting weight in the series on D283Med xenografts (D283Med-bearing mice, daily x5, TMZ 68 mg kg−1 p.o., AG-014699 1 mg kg−1 i.p.); 97 % starting weight with D384Med xenografts (D384Med-bearing mice, daily x5, TMZ 68 mg kg−1 p.o., AG-014699 1 mg kg−1 i.p.). The “Complete tumour regressions (including not sustained)” value in the series with D425Med xenografts (D425Med, daily x5) is “complete tumour regressions seen in all mice; also recorded: all mice showing complete tumour regressions”. Further, the “Median time to RTV4” value in the series on D425Med xenografts (D425Med, daily x5, TMZ 68 mg kg−1 p.o., AG-014699 1 mg kg−1 i.p.) is listed as above 100 days; in the series with D283Med xenografts (D283Med, daily x5, TMZ 68 mg kg−1 p.o., AG-014699 1 mg kg−1 i.p.), 9 days; with D384Med xenografts (D384Med, daily x5, TMZ 68 mg kg−1 p.o., AG-014699 1 mg kg−1 i.p.), 44.5 days. The Complete regressions result with D425Med xenografts (D425Med, mice with regression/group, sustained for 100 days) was “two out of five”; with D283Med xenografts (D283Med), “no regressions observed in any mice”; with D283Med xenografts (D283Med, listed as TMZ) it was 0/5; in the series on D384Med xenografts (D384Med), “one transient complete response”; in the series on D384Med xenografts (D384Med, listed as TMZ) it was 1/5. Further, the Tumour growth delay is above 81 days with D425Med xenografts (D425Med, versus control time to RTV4); 2 days in the series on D283Med xenografts (D283Med, versus control time to RTV4); 28.5 days in the series with D384Med xenografts (D384Med, versus control time to RTV4). Besides, the GI50 with D384Med cells was 220 ± 42 µM; with D283Med cells (Homo sapiens, D283 Med, 120 h, D283Med, temozolomide alone, XTT, 5 days), 807 ± 239 µM; with D425Med cells, 9.3 ± 7.5 µM; in the series on D425Med cells (Homo sapiens, D425 Med, 72 h) it was 9 µM. The “Relative sensitivity to temozolomide (times less sensitive)” value in the series on D283Med cells (D283Med compared with D384Med) is given as “nearly four times less sensitive”; in the series on D283Med cells (D283Med compared with D425Med), around 100 times. In addition, the “Relative sensitivity to temozolomide (times more sensitive)” value with D425Med cells (D425Med compared with D384Med, in culture) was around 25 times.
